For test [1], the target named is Urokinase-type plasminogen activator (Homo sapiens, UniProt P00749). The test is described as follows: Rate constant of deacylation for Urokinase-type plasminogen activator.
The target of test [2] is Prothrombin (Homo sapiens, UniProt P00734). Briefly: Rate constant of deacylation for thrombin.
Test [3] concerns the target Serine protease 1 (Homo sapiens, UniProt P07477). Briefly: Rate constant of deacylation for trypsin.

The structures appear in SMILES notation.

A word on the koff: it is the first-order rate constant of dissociation.

Sequence of Serine protease 1 (P07477 whole entry): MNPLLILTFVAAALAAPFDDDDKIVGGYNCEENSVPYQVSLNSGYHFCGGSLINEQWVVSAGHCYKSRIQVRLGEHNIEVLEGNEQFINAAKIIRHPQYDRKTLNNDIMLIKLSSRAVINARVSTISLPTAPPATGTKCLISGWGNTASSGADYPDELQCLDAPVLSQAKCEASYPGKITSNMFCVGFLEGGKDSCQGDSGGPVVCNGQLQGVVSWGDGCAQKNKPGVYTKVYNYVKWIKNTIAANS

For the compound `C=C1CCC(c2ccc(CNC(=N)N)cc2)C(=O)O1` (stereo not drawn), the koff came to 0.000733 s⁻¹ in test [1] and 0.0001 s⁻¹ in test [2].

`C=C1CC(c2ccc(NC(=N)N)cc2)C/C(=C\I)O1` (stereo not drawn): the koff in test [3] is 0.000333 s⁻¹.

For the compound `N=C(N)NCc1ccc(C2CC/C(=C\I)OC2=O)cc1` (stereo not drawn), the koff in test [2] turned out to be 0.000217 s⁻¹.

Consider `C=C1CC(c2ccc(NC(=N)N)cc2)CC(=C)O1`, for which the koff in test [1] was 0.00015 s⁻¹; in test [3], 3.3e-05 s⁻¹.

On to `C=C1O/C(=C/I)C[C@H](c2ccc(NC(=N)N)cc2)[C@H]1NC(=O)c1ccccc1`, for which the figures for the koff in test [1] and in test [3] were 1.3e-05 s⁻¹ and 8.3e-05 s⁻¹, respectively.

The values above are taken from BindingDB's records for doi:10.7270/Q25M67W6 (n/a, 1992).
